Patent publication US8138191B2, “Inhibitor compounds and cancer treatment methods” (Critical Outcome Technologies Inc., priority 2007, dated 2012)

What was measured:
[1] = system: cleaved caspases 3 and 9; assay: Cleaved caspase 3 and 9 by western blot after COTI-219; type: cell-based, human; conditions: 12 h incubation, dose-dependent increase
Method: Cell viability assays were performed 24 to 48 h following incubation with COTI-219 by the trypan blue exclusion method using a Beckman-Coulter Vi-CELL XR 2.03 automated cell counter. Routine laboratory methods were employed for the production of cellular lysates, protein quantitation, SDS-PAGE and western blotting. All antibodies were obtained from Cell Signaling (Erk1/2 #4695, Ras #3965, CDK2 #2546, PKCalpha #2056, EGFR #2232, and ERBB2 #2165).
In lung cancer, oncogenic Ras exerts anti-apoptotic effects, in part by up-regulating the multi-functional PKB/AKT kinase. Activated PKB/AKT phosphorylates and inhibits caspase 9 activation. In order to determine whether caspase 9 activation mediates COTI-219 apoptosis, cells were incubated for 12 h with vehicle or increasing concentrations of COTI-219 and the expression levels of cleaved caspases 3 and 9 were determined. There was a dose-dependent increase in the levels of both cleaved caspases, peaking at 0.5 μM of COTI-219. Beyond this concentration, activated caspase 9 was not detectable and there was a decline in cleaved caspase 3.

[2] = target: CYP2E1 (Homo sapiens, UniProt P05181); assay: CYP2E1 Inhibition (HLM, chlorzoxanzone substrate)
CYP2E1, sequence (P05181 whole entry): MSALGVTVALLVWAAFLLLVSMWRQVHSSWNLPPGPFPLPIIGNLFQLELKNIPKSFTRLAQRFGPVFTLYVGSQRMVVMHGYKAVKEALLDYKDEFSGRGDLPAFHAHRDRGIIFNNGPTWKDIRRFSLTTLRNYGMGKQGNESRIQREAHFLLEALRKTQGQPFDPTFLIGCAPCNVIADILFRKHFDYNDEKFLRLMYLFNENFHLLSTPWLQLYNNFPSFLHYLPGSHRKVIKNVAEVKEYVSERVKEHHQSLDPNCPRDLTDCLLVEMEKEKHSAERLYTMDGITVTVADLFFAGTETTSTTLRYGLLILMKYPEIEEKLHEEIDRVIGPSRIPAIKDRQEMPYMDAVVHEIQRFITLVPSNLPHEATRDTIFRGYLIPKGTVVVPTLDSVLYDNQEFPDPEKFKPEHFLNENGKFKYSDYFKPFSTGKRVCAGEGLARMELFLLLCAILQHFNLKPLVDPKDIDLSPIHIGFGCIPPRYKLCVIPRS

[3] = system: total Akt protein in SHP-77 cells; assay: Total Akt by western blot analysis, SHP-77; type: cell-based, human; conditions: SHP-77, 250 nM, after 24 hrs
Method: Cell viability was determined at 24, 48, and 96 hrs by the trypan exclusion method. Whole cell lysates were prepared using standard procedures and fifty micrograms of lysate protein was separated on SDS-PAGE gels and analyzed by western blotting.
Cell viability was determined at 24, 48, and 96 h by the trypan exclusion method. Whole cell lysates were prepared using standard procedures and 50 μg of lysate protein was separated on SDS-PAGE gels and analyzed by western blotting.

[4] = target: T1, CYP2C8 (Homo sapiens, UniProt P10632); assay: in vitro; conditions: both
T1 sequence (P10632 1-490): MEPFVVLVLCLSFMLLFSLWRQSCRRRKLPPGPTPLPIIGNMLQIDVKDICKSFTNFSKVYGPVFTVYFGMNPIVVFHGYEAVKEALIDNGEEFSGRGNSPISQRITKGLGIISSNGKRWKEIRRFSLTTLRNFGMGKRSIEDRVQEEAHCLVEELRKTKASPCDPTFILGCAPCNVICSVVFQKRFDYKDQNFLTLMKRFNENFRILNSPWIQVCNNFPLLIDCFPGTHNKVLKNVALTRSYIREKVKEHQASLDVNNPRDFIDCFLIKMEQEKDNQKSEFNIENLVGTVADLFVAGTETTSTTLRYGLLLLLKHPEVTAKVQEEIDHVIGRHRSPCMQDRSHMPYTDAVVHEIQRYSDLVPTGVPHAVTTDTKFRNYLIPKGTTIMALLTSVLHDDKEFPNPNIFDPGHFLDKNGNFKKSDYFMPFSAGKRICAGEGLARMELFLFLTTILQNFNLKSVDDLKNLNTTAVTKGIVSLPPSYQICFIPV

[5] = system: DMS114 cells; assay: AKT/AKT2 siRNA then COTI-2, cell viability by MTT assay, DMS114; type: cell-based, human; conditions: DMS114, 500 nM COTI-2
Method: Cell cultures were maintained under regular tissue culture conditions and passaged 1-2 times a week as recommended by ATCC. For siRNA experiments the manufacturer's conditions for growth and transfection were followed. All siRNA reagents for AKT and AKT2 transfections were obtained from Cell Signaling.
Cells were treated for 48 h with 0-100 ng of AKT or AKT2 siRNA before incubation with COTI-2 at various concentrations (0-500 nM). Following incubation for 48 h, cell viability was determined by MTT assay.

| Compound | concentration at which levels of cleaved caspases 3 and 9 peak [1] [µM] | percent inhibition ([2]; CYP2E1, 10 μM) | % Inhibition of Control Values ([2]; CYP2E1, HLM, chlorzoxazone substrate, 1.0E−05 M) [%] | total Akt protein [3] | inhibition at 15 min, 10 µM ([4]; human liver microsomes, pH 7.4, probe paclitaxel (10 µM)) [%] | inhibition at 15 min, 10 µM ([4]; liver microsomes, pH 7.4, probe paclitaxel) [%] | cytotoxicity after AKT2 knock-down by siRNA [5] |
| --- | --- | --- | --- | --- | --- | --- | --- |
| CN1CCN(C(=S)NN=C2c3ncccc3-c3cccnc32)CC1 [COTI-219] | 0.5 | – | – | – | – | – | – |
| S=C(N/N=C1/CCCc2cccnc21)N1CCN(c2ccccn2)CC1 [COTI-2] | – | below 50% | −2 | decreased | 10 | < 50 | unable to exert additional significant cytotoxicity |
